Laboratory results published in PubChem BioAssay (NCI).
“And” between values parts separate entries of the source, which are not always exact repeats. Equal entries are not always repeated.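 Interpolation was linear, between the two tested concentrations surrounding the appropriate level; five concentrations were tested over 48 hours in 96-well plates. GI50 marks 50% less growth. TGI is the concentration that stops growth completely.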

Key:
Assay in all cases: DTP human tumour cell line panel, 48 h
SN12C renal = tested on: SN12C renal
SNB-19 CNS = tested on: SNB-19 CNS
LOX IMVI melanoma = tested on: LOX IMVI melanoma
SF-295 CNS = tested on: SF-295 CNS
IGROV1 ovarian = tested on: IGROV1 ovarian
MCF7 breast = tested on: MCF7 breast
MALME-3M melanoma = tested on: MALME-3M melanoma
RPMI-8226 leukemia = tested on: RPMI-8226 leukemia
SF-268 CNS = tested on: SF-268 CNS
EKVX NSCLC = tested on: EKVX NSCLC

Row | SMILES | GI50 (SN12C renal) | TGI (SN12C renal) [µM] | GI50 (SNB-19 CNS) | TGI (SNB-19 CNS) [µM] | GI50 (LOX IMVI melanoma) | TGI (LOX IMVI melanoma) [µM] | GI50 (SF-295 CNS) | TGI (SF-295 CNS) [µM] | GI50 (IGROV1 ovarian) | TGI (IGROV1 ovarian) [µM] | GI50 (MCF7 breast) [µM] | TGI (MCF7 breast) [µM] | GI50 (MALME-3M melanoma) | TGI (MALME-3M melanoma) [µM] | GI50 (RPMI-8226 leukemia) | TGI (RPMI-8226 leukemia) [µM] | GI50 (SF-268 CNS) | TGI (SF-268 CNS) [µM] | GI50 (EKVX NSCLC) | TGI (EKVX NSCLC) [µM]
1 | Nc1nc(=S)c2ncn(C3OC(COP(=O)(O)O)C(O)C3O)c2[nH]1 (configuration not stated) | 3.66 µM | > 100 | > 100 µM | > 100 | 0.322 µM | 14.2 | 0.378 µM | > 100 | 5.23 µM | > 100 | 0.397 | > 100 | 1.81 µM | 75 | 0.451 µM | > 100 | 2.11 µM | > 100 | 2.34 µM | > 100
2 | O=NN(CCCl)C(=O)NC1CCC(CC(=O)O)CC1 (configuration not stated) | – | > 100 | – | > 100 | – | > 100 | – | > 100 | – | > 100 | – | > 100 | – | > 100 | – | > 100 | – | > 100 | – | > 100
3 | C(=Nc1nc(SCc2ccccc2)nc2[nH]ncc12)c1cccs1 | > 100 µM | > 100 | 26.4 µM | > 100 | 48.6 µM | > 100 | > 100 µM | > 100 | > 100 µM | > 100 | 40.4 | > 100 | 42.9 µM | > 100 | 27.6 µM | > 100 | 30.4 µM | > 100 | 34.5 µM | > 100
4 | Cc1cc(Cl)nc(N(CCNc2ccnc3cc(Cl)ccc23)Cc2ccco2)n1 | 1.98 µM | 3.95 | 3.54 µM | 16.2 | 1.72 µM | 3.2 | 1.5 µM | 3.01 | 1.75 µM | 3.66 | 1.69 | 3.36 | 1.96 µM | 3.57 | 1.76 µM | 4.27 | 3.22 µM | 13.2 | 2.68 µM | 12.1
5 | Cc1cccc(Cn2cc(CO)c3cnccc32)c1 | > 100 µM | > 100 | > 100 µM | > 100 | 67.3 µM | > 100 | 12.4 µM | 76.7 | 44.8 µM | > 100 | 51.3 | > 100 | 64.6 µM | > 100 | 3.82 µM | 72.9 | > 100 µM | > 100 | 20.9 µM | > 100
6 | CN(C)c1ccc(-c2cc(-c3ccc(Nc4nc(Nc5ccc(Cl)cc5)nc(Nc5ccc(Cl)cc5)n4)cc3)nc(N)c2C#N)cc1 | 13.8 µM | > 100 | > 100 µM | > 100 | 18.9 µM | > 100 | 13.9 µM | > 100 | 4.53 µM | > 100 | 2.38 | 47.7 | 69.4 µM | > 100 | 0.864 µM | 53.8 | 40.3 µM | > 100 | > 100 µM | > 100
7 | O=C(Nc1ccc(OC(F)(F)Cl)cc1)c1cnc(N2CC[C@@H](O)C2)c(-c2ccn[nH]2)c1 | 12.6 µM | 28.9 | 12.9 µM | 28.2 | 4.84 µM | 18.7 | 10.6 µM | 26 | 15.2 µM | 41.1 | 10 | 32.8 | 12.5 µM | 26 | 9.44 µM | 39.9 | 15.4 µM | 39.2 | 8.63 µM | 28.7
8 | OCCCCC#Cc1ccccc1C#Cc1cccc(C(F)(F)F)c1 | 18.9 µM | 33 | 20.2 µM | 36.4 | 17.5 µM | 31.8 | 16.5 µM | 30.9 | 14.4 µM | 28.5 | 21.2 | 42.7 | 26 µM | 48.5 | 21.7 µM | 40.6 | 19.1 µM | 42.5 | 17.9 µM | 34.7
9 | CSc1nc2nc(-c3ccccc3)c(C)c-2c2n1C(C)C(=O)N2 (configuration not stated) | 52.6 µM | > 100 | 38.5 µM | > 100 | 46.7 µM | > 100 | 24 µM | > 100 | 41.5 µM | > 100 | 25.8 | > 100 | 43.1 µM | > 100 | 16.4 µM | > 100 | 34.2 µM | > 100 | 65.7 µM | > 100
10 | CC[C@H](C)[C@H](NC(=O)[C@H]1CCCCN1C)C(=O)N(C)[C@H](C[C@@H](OC(C)=O)c1nc(C(=O)NC23CC(C(=O)OC)(C2)C3)cs1)C(C)C | 0.000654 µM and 0.00325 µM | > 32.5 | 0.00105 µM and 0.00325 µM | > 32.5 | 0.00054 µM and 0.00325 µM | > 32.5 | 0.00128 µM and 0.00325 µM | – | 0.00132 µM and 0.00325 µM | > 32.5 | – | > 32.5 | 0.00756 µM and 0.0305 µM | > 32.5 | 0.000328 µM and 0.00325 µM | 12.1 | 0.000937 µM and 0.00325 µM | > 32.5 | 0.0475 µM and 0.0175 µM | > 32.5
11 | N#CC(C#N)=C/C=C(\Sc1ccc(Cl)cc1)c1ccc(F)cc1 | 0.986 µM | 7.26 | 5.67 µM | 24.9 | 0.403 µM | – | 2.74 µM | 9.94 | 2.09 µM | 12.3 | 0.982 | > 100 | 1.6 µM | 6.28 | 0.0597 µM | 1.1 | 2.46 µM | 18.8 | 15.7 µM | 52.5
